Laboratory results from ChEMBL document CHEMBL1201862, “PubChem BioAssay data set” (2004).
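1) Cells in 96-well plates. 2) Compound, 48 h, 5 concentrations. 3) Linear interpolation between surrounding doses. 4) Unreached endpoint = highest concentration. GI50 is the concentration that inhibits growth by half.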 Activity calls are given as the source filed them. Rule as the data show it: active = GI50 up to about 1.1 µM and inactive = higher.

Columns and labels:
Assay in all cases: NCI tumour cell line growth inhibition, 48 h
SR = system: SR
NCI-H460 = system: NCI-H460
SF-539 = system: SF-539
SNB-75 = system: SNB-75
SN12C = system: SN12C
SK-OV-3 = system: SK-OV-3
HOP-92 = system: HOP-92
ACHN = system: ACHN
MDA-MB-231 = system: MDA-MB-231
HCT-15 = system: HCT-15
MOLT-4 = system: MOLT-4
MCF7 = system: MCF7
CAKI-1 = system: CAKI-1
KM12 = system: KM12
HT-29 = system: HT-29
Malme-3M = system: Malme-3M
U-251 = system: U-251
HL-60 = system: HL-60
UACC-257 = system: UACC-257
Hs-578T = system: Hs-578T

Structure (SMILES)	GI50 (SR)	GI50 (NCI-H460)	GI50 (SF-539)	GI50 (SNB-75)	GI50 (SN12C)	GI50 (SK-OV-3)	GI50 (HOP-92)	GI50 (ACHN)	GI50 (MDA-MB-231)	GI50 (HCT-15) [µM]	GI50 (MOLT-4)	GI50 (MCF7)	GI50 (CAKI-1)	GI50 (KM12)	GI50 (HT-29)	GI50 (Malme-3M)	GI50 (U-251)	GI50 (HL-60)	GI50 (UACC-257)	GI50 (Hs-578T)
Cc1ccc(C2NC(=O)c3ccccc3N2)c(C)c1 (stereo not given)	0.807 µM (active)	3.07 µM (inactive)	1.61 µM (inactive)	1.92 µM (inactive)	6.9 µM (inactive)	2.22 µM (inactive)	9.53 µM (inactive)	6.82 µM (inactive)	7.4 µM (inactive)	1.08	0.736 µM (active)	1.07 µM (active)	2.56 µM (inactive)	3.21 µM (inactive)	2.19 µM (inactive)	1.69 µM (inactive)	2.59 µM (inactive)	0.453 µM (active)	6 µM (inactive)	2.4 µM (inactive)
CCOC(=O)NC(Nc1ccc(F)cc1)(C(=O)OCC)C(F)(F)F (stereo not given)	> 100 µM (inactive)	> 21.7 µM (inactive)	> 100 µM (inactive)	> 100 µM (inactive)	> 100 µM (inactive)	> 100 µM (inactive)	> 100 µM (inactive)	2.62 µM (inactive)	> 100 µM (inactive)	29.6	6.71 µM (inactive)	> 66.7 µM (inactive)	> 100 µM (inactive)	0.556 µM (active)	> 100 µM (inactive)	> 100 µM (inactive)	> 100 µM (inactive)	0.526 µM (active)	3.47 µM (inactive)	> 100 µM (inactive)
CCCCCCCCCCCCCCCCCCNC(=O)OCC(CNS(=O)(=O)CCC[n+]1cccc2ccccc21)COC (stereo not given)	2.04 µM (inactive)	1.34 µM (inactive)	2.01 µM (inactive)	2.47 µM (inactive)	1.56 µM (inactive)	2.49 µM (inactive)	0.838 µM (active)	6.75 µM (inactive)	1.82 µM (inactive)	23.7	1.11 µM (active)	1.55 µM (inactive)	7.82 µM (inactive)	1.84 µM (inactive)	0.565 µM (active)	3.74 µM (inactive)	0.596 µM (active)	1.23 µM (inactive)	2.8 µM (inactive)	2 µM (inactive)
Clc1ccc(-c2c3nc(c(-c4ccc(Cl)cc4)c4ccc([nH]4)c(-c4ccc(Cl)cc4)c4nc(c(-c5ccc(Cl)cc5)c5ccc2[nH]5)C=C4)C=C3)cc1	> 100 µM (inactive)	> 100 µM (inactive)	> 100 µM (inactive)	20.8 µM (inactive)	> 100 µM (inactive)	> 100 µM (inactive)	> 100 µM (inactive)	> 100 µM (inactive)	> 100 µM (inactive)	> 100	> 100 µM (inactive)	> 100 µM (inactive)	> 100 µM (inactive)	> 100 µM (inactive)	> 100 µM (inactive)	70.8 µM (inactive)	> 100 µM (inactive)	> 100 µM (inactive)	> 100 µM (inactive)	40.1 µM (inactive)
Nc1nc2ccc(Sc3ccc4nc(N)[nH]c(=O)c4c3)cc2c(=O)[nH]1	> 100 µM (inactive)	> 100 µM (inactive)	> 100 µM (inactive)	> 100 µM (inactive)	> 100 µM (inactive)	> 100 µM (inactive)	> 100 µM (inactive)	> 100 µM (inactive)	67.3 µM (inactive)	> 100	> 100 µM (inactive)	> 100 µM (inactive)	> 100 µM (inactive)	> 100 µM (inactive)	> 100 µM (inactive)	> 100 µM (inactive)	42.5 µM (inactive)	> 100 µM (inactive)	> 100 µM (inactive)	> 100 µM (inactive)
CCCNc1[nH]c(C(=O)c2ccccc2)c(N)c1C(=S)Nc1ccccc1	> 100 µM (inactive)	> 100 µM (inactive)	> 100 µM (inactive)	> 100 µM (inactive)	> 100 µM (inactive)	> 100 µM (inactive)	> 100 µM (inactive)	> 100 µM (inactive)	> 100 µM (inactive)	> 100	> 100 µM (inactive)	> 100 µM (inactive)	> 100 µM (inactive)	> 100 µM (inactive)	> 100 µM (inactive)	> 100 µM (inactive)	> 100 µM (inactive)	> 100 µM (inactive)	> 100 µM (inactive)	> 100 µM (inactive)
c1c[nH]c(C23C4C5C6C4C2C6C53)n1 (stereo not given)	> 100 µM (inactive)	> 100 µM (inactive)	> 100 µM (inactive)	> 100 µM (inactive)	> 100 µM (inactive)	> 100 µM (inactive)	> 100 µM (inactive)	> 100 µM (inactive)	> 100 µM (inactive)	> 100	> 100 µM (inactive)	> 100 µM (inactive)	> 100 µM (inactive)	> 100 µM (inactive)	> 100 µM (inactive)	> 100 µM (inactive)	> 100 µM (inactive)	> 100 µM (inactive)	> 100 µM (inactive)	> 100 µM (inactive)
